Assay results taken from patent US11332498B2, “Ligands for integrin αVβ8, synthesis and uses thereof” (Technische Universitat Munchen, priority 2017, dated 2022).
Where two headings read alike, the source gives them in different places. Where a SMILES comes first, the peptide text is derived from it. Bridges are numbered along the chain shown (N, C = ends). Roman numbers before positions name the chains, in order. Side-chain parts run from the residue outwards. [ ]: non-standard residue; d: D form. The star is where a group is joined. BODIPY(FL) = CC1=CC(C)=[N+]2C1=Cc1ccc(CCC(=O)*)n1[B-]2(F)F; NMeK = CN[C@@H](CCCCN)C(=O)O; Ahx = NCCCCCC(=O)O

Experiments:
αvβ8 = αvβ8 (Homo sapiens, UniProt P06756+P26012); assay: solid-phase integrin binding assay, αvβ8; conditions: for IC50: Table 1, coated LAP, soluble integrin, read-out: αvβ8 [nM] (integrin binding affinity)
αvβ8, sequence (P06756 31-889 limits assumed): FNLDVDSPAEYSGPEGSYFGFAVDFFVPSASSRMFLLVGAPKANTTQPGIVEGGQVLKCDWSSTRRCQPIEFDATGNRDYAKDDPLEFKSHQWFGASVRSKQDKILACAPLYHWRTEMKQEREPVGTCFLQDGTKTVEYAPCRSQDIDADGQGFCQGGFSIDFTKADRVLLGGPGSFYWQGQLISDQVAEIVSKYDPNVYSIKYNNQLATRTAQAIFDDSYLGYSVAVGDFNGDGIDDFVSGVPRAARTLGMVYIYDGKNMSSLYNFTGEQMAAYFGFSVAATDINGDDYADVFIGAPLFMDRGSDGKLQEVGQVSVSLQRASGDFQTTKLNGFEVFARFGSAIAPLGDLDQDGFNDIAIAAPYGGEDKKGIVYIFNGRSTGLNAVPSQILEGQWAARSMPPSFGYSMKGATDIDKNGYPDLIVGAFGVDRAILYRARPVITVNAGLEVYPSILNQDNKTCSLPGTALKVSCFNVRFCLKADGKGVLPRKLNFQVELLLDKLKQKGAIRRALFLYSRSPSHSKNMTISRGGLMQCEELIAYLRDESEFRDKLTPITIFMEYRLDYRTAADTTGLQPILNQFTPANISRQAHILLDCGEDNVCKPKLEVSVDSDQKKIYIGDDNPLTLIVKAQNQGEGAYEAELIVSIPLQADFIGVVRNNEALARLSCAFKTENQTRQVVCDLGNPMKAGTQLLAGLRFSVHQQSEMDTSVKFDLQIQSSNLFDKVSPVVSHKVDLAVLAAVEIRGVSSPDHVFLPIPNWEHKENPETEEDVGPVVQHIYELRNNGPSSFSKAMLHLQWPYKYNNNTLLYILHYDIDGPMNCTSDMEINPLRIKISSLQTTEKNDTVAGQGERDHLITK
αvβ8, sequence (P06756 891-992 partner limits assumed): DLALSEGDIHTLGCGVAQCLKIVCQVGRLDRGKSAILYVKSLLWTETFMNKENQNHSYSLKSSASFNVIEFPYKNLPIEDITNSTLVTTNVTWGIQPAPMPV
αvβ8, sequence (P26012 43-684 limits assumed): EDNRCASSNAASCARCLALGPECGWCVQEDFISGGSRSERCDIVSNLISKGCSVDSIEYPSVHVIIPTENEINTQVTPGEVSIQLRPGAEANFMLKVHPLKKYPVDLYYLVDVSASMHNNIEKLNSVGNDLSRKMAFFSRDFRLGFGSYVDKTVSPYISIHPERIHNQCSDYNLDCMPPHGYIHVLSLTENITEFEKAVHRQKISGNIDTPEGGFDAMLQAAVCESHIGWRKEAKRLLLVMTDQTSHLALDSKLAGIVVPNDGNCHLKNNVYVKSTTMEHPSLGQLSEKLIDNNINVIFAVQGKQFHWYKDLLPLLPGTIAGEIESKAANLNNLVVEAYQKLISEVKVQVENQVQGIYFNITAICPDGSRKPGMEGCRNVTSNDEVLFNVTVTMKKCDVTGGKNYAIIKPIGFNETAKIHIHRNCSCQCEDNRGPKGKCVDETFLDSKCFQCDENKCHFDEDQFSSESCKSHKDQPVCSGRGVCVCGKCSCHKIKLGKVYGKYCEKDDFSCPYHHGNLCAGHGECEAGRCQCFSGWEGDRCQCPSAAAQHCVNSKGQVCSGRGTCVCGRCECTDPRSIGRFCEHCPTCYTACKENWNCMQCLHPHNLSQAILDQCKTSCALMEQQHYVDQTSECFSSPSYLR

αvβ5 = αvβ5 (Homo sapiens, UniProt P06756+P18084); assay: solid-phase integrin binding assay, αvβ5
αvβ5, sequence (P06756 31-889 limits assumed): as the sequence (P06756 31-889 limits assumed) above
αvβ5, sequence (P06756 891-1048 partner limits assumed): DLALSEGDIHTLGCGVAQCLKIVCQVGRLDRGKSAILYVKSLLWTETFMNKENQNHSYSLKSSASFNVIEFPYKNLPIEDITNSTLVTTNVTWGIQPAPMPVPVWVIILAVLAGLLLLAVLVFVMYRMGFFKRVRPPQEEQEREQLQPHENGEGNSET
αvβ5, sequence (P18084 24-799): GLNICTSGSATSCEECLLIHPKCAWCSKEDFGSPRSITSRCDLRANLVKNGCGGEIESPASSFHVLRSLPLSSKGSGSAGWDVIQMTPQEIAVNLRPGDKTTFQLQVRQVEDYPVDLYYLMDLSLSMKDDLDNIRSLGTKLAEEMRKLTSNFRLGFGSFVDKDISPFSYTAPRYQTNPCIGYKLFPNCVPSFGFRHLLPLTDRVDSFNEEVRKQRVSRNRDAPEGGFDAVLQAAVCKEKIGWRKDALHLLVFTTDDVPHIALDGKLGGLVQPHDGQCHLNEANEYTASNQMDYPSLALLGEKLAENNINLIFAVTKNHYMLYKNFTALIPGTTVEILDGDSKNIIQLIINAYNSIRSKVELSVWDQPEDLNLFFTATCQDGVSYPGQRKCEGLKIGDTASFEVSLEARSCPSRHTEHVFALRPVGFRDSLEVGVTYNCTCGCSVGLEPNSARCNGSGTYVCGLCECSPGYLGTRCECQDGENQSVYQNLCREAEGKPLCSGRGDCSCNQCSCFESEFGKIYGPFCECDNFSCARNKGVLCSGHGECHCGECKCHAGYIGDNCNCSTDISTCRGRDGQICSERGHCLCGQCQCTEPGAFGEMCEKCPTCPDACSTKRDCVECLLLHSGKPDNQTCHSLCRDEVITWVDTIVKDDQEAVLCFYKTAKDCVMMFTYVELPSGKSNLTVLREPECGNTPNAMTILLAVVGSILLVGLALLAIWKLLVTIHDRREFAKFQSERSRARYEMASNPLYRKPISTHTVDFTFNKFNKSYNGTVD
Method: (§1) The activity and selectivity of integrin ligands were determined by a solid-phase binding assay according to the previously reported protocols using coated extracellular matrix proteins and soluble integrins: Fibronectin (Fn) for α5β1, latent activating protein (LAP) for αvβ6 and αvβ8, Vitronectin (Vn) for αvβ3 and αvβ5, Fibrinogen (Fbg) for αIIbβ3.

αvβ6 = αvβ6 (Homo sapiens, UniProt P06756+P18564); assay: solid-phase integrin binding assay, αvβ6
αvβ6, sequence (P06756 31-889 limits assumed): as the sequence (P06756 31-889 limits assumed) above
αvβ6, sequence (P06756 891-992 partner limits assumed): as the sequence (P06756 891-992 partner limits assumed) above
αvβ6, sequence (P18564 22-707 limits assumed): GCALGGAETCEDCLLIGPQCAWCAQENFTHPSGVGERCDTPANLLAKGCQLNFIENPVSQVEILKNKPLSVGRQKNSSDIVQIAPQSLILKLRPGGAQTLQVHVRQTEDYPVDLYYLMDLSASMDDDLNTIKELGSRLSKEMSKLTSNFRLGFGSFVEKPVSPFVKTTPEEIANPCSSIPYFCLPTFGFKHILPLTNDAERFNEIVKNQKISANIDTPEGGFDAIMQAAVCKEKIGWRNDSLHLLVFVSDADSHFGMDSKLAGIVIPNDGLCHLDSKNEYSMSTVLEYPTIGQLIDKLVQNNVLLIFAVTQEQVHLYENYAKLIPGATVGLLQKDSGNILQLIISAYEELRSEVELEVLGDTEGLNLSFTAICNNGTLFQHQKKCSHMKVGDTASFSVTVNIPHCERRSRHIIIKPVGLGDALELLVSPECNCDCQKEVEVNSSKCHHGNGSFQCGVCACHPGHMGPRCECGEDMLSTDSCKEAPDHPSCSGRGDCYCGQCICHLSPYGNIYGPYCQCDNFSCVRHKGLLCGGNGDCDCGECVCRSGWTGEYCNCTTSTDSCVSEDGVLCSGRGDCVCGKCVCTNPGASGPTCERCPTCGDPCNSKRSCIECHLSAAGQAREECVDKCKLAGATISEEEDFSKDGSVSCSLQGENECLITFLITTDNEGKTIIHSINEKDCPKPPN
Method: as §1

α5β1 = α5β1 (Homo sapiens, UniProt P05556+P08648); assay: solid-phase integrin binding assay, α5β1
Method: as §1

αvβ3 = αvβ3 (Homo sapiens, UniProt P05106+P06756); assay: solid-phase integrin binding assay, αvβ3; conditions: Table 2; coated Vitronectin
αvβ3, sequence (P06756 31-889 limits assumed): as the sequence (P06756 31-889 limits assumed) above
αvβ3, sequence (P06756 891-992 partner limits assumed): as the sequence (P06756 891-992 partner limits assumed) above
αvβ3, sequence (P05106 27-718 limits assumed): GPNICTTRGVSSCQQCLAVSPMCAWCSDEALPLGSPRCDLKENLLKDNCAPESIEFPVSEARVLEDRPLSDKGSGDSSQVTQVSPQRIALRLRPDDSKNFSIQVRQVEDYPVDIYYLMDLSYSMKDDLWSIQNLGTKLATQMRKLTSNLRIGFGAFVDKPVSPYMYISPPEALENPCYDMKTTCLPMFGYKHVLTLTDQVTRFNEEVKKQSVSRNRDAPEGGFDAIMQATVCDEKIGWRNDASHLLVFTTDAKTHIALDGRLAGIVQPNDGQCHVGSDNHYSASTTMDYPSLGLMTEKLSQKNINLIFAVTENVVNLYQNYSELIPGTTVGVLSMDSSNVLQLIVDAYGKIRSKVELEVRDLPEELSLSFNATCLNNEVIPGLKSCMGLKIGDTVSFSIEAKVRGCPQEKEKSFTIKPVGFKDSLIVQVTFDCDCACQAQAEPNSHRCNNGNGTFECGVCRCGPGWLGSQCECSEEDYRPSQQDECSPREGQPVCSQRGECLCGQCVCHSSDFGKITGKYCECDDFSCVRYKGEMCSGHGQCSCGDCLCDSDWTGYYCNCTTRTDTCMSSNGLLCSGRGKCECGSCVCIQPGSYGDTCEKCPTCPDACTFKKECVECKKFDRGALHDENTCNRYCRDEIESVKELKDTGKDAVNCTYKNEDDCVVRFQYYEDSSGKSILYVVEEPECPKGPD
Method: as §1

αIIbβ3 = αIIbβ3 (Homo sapiens, UniProt P05106+P08514); assay: solid-phase integrin binding assay, αIIbβ3; conditions: Table 2; coated Fibrinogen
Method: as §1

[1] = Table 3, BDPFL-labelled compounds and comparatives
[2] = Table 1, coated LAP, soluble integrin, read-out: αvβ6 [nM] (integrin binding affinity)

SMILES	IC50 (αvβ5; [1]) [nM]	IC50 (αvβ8) [nM]	IC50 (αvβ6; [2]) [nM]	other results
Cc1cc(C)n2c1C=C1C=CC(CCC(=O)NCC(=O)N3CCC[C@H]3C(=O)N3CCC[C@H]3C(=O)N3CCC[C@H]3C(=O)N3CCC[C@H]3C(=O)N3CCC[C@H]3C(=O)N3CCC[C@H]3C(=O)NCC(=O)NCCCC[C@H]3C(=O)NCC(=O)N[C@@H](CC(C)C)C(=O)N[C@@H](CCCNC(=N)N)C(=O)NCC(=O)N[C@@H](CC(=O)O)C(=O)N[C@@H](CC(C)C)C(=O)N4CCC[C@@H]4C(=O)N3C)=[N+]1[B-]2(F)F [Compound 9f, 9-G(P)6G-BDPFL] (I: {BODIPY(FL)}-GPPPPPPG / II: cyclo(RGDL[dP][NMeK]GL); amide I:C-II:6)	> 10000			binding activity to αvβ8 (in words) (αvβ8; comparison with compound 9, comment on Table 3): reduced binding activity
CC(C)C[C@@H]1NC(=O)CNC(=O)[C@@H]2CCCN2C(=O)[C@H]2CCCN2C(=O)[C@H](CC(C)C)NC(=O)[C@H](CC(=O)O)NC(=O)CNC(=O)[C@H](CCCNC(=N)N)NC1=O [compound 2, Cyclo-(Arg-Gly-Asp-Leu-D-Pro-Pro-Gly-Leu)] (cyclo(RGDL[dP]PGL))		0.93	210	
Cc1cc(C)n2c1C=C1C=CC(CCC(=O)NCC(=O)N3CCC[C@H]3C(=O)N3CCC[C@H]3C(=O)N3CCC[C@H]3C(=O)NCC(=O)NCCCC[C@H]3C(=O)NCC(=O)N[C@@H](CC(C)C)C(=O)N[C@@H](CCCNC(=N)N)C(=O)NCC(=O)N[C@@H](CC(=O)O)C(=O)N[C@@H](CC(C)C)C(=O)N4CCC[C@@H]4C(=O)N3C)=[N+]1[B-]2(F)F [Compound 9e, 9-G(P)3G-BDPFL] (I: cyclo(RGDL[dP][NMeK]GL) / II: {BODIPY(FL)}-GPPPG; amide I:6-II:C)	> 10000			IC50 (αvβ6; Table 3, BDPFL-labelled compounds and comparatives, read-out: αvβ6, IC50): 247 nM
CC1=CC(C)=[N+]2C1=Cc1ccc(CCC(=O)NCCCCCC(=O)NCCCC[C@H]3C(=O)NCC(=O)N[C@@H](CC(C)C)C(=O)N[C@@H](CCCNC(=N)N)C(=O)NCC(=O)N[C@@H](CC(=O)O)C(=O)N[C@@H](CC(C)C)C(=O)N4CCC[C@@H]4C(=O)N3C)n1[B-]2(F)F [Compound 9b, 9-Ahx-BDPFL] (cyclo(RGDL[dP][NMeK]([Ahx-BODIPY(FL)])GL))	> 10000			IC50 (α5β1; [1]): > 1000 nM
Cc1cc(C)n2c1C=C1C=CC(CCC(=O)NCCCC[C@H]3C(=O)NCC(=O)N[C@@H](CC(C)C)C(=O)N[C@@H](CCCNC(=N)N)C(=O)NCC(=O)N[C@@H](CC(=O)O)C(=O)N[C@@H](CC(C)C)C(=O)N4CCC[C@@H]4C(=O)N3C)=[N+]1[B-]2(F)F [Compound 9a, 9-BDPFL] (cyclo(RGDL[dP][NMeK](BODIPY(FL))GL))	> 10000			
CC(=O)NCCCC[C@H]1C(=O)NCC(=O)N[C@@H](CC(C)C)C(=O)N[C@@H](CCCNC(=N)N)C(=O)NCC(=O)N[C@@H](CC(=O)O)C(=O)N[C@@H](CC(C)C)C(=O)N2CCC[C@@H]2C(=O)N1C [compound 9, Cyclo-(Arg-Gly-Asp-Leu-D-Pro-(N-Me-Lys(Ac))-Gly-Leu)] (cyclo(RGDL[dP][NMeK](Ac)GL))		6	201	
CC(C)C[C@@H]1NC(=O)CNC(=O)[C@H](CCCCN)N(C)C(=O)[C@H]2CCCN2C(=O)[C@H](CC(C)C)NC(=O)[C@H](CC(=O)O)NC(=O)CNC(=O)[C@H](CCCNC(=N)N)NC1=O [compound 8, Cyclo-(Arg-Gly-Asp-Leu-D-Pro-(N-Me-Lys)-Gly-Leu)] (cyclo(RGDL[dP][NMeK]GL))		6.5	201	IC50 (αvβ3): > 1000 nM; IC50 (αvβ5; Table 2, coated Vitronectin): > 1000 nM; IC50 (α5β1; Table 2, coated Fibronectin): > 1000 nM; IC50 (αIIbβ3): > 1000 nM
